Assay results as given in US8765775B2, “Anti-angiogenic compounds” (Universitaet Zuerich, priority 2008, dated 2014).
“And” between values parts separate entries of the source, which are not always exact repeats. Identical values can stand only once.

Tests used:
[1] = molecular target: T1, EphB4 (Homo sapiens, UniProt P54760); test: Omnia kinetic assay (Omnia Tyr Recombinant Kit KNZ4051); format: biochemical; design: purchased Proqinase, Germany
T1 sequence (P54760 16-987): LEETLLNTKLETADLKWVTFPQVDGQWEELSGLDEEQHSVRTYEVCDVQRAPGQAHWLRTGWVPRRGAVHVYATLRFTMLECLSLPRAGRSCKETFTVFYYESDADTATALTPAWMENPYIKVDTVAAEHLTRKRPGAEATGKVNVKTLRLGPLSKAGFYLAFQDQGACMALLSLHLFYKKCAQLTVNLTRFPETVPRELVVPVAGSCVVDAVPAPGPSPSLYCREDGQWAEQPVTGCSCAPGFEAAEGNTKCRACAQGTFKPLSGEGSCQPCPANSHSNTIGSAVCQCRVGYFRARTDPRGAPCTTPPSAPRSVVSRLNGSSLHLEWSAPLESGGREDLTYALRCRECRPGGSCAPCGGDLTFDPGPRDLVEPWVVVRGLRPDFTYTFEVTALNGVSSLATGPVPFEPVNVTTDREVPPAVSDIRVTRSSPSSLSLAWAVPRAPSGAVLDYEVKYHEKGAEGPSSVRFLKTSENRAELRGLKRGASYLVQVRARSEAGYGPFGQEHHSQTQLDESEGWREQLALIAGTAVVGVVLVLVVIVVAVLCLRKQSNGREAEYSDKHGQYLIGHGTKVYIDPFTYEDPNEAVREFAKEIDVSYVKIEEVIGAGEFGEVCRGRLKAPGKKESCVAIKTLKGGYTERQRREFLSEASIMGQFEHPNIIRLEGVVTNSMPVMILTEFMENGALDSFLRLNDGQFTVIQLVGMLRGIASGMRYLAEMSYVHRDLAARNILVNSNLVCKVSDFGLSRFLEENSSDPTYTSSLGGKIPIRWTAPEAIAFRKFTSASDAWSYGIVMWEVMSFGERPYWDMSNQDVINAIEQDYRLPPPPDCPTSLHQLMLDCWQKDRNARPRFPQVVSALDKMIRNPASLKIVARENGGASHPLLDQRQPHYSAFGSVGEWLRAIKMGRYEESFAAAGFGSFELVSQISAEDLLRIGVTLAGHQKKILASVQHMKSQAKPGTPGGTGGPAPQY
Procedure: The data obtained in these experiments are shown in a specific velocity plot (FIG. 2), where the ratio of the initial velocities for the non-inhibited and inhibited reactions at a given ATP concentration (v0/vi in FIG. 2) is plotted versus σ/(1+σ), with σ=[ATP]/Km. […] Kinetic assay. […] Fluorescence progress curves are measured upon excitation at 360 nm and emission at 485 nm. […] Biosource Omnia. […] The assay is run at 30° C. for 1 hour.

[2] = molecular target: T2, myc-tagged full-length human EphB4 (Homo sapiens, UniProt P54760); test: Phospho-EphB4 ELISA of CHO cells (EphB4 autophosphorylation); format: cell-based
T2 construct: stably transfected with myc-tagged full-length human EphB4; expressed in transfected cells; host or cells: CHO-FRT cells (Flip-In System, Invitrogen)
T2 sequence (P54760 16-987): T1 sequence (P54760 16-987)
Procedure: Phospho-EphB4 ELISA of CHO cells. The ELISA assay was performed as follows: Chinese hamster ovary (CHO)-FRT cells are stably transfected with myc-tagged full-length human EphB4 according to the Flip-In System protocol (Invitrogen, USA). […] Cells of this clone are preincubated with EphB4 inhibitors for 15 minutes and then stimulated with preclustered ephrinB2-Fc for 45 minutes at 37° C. Cells are lysed, transferred to a 96-well plate coated with anti-myc antibody and incubated overnight at 4° C. After incubation with anti-phosphotyrosine antibody, reactions are developed with BM Blue peroxydase substrate, and autophosphorylation of EphB4 is quantified by measuring absorption at 450 nm.

[3] = molecular target: T1, EphB4; test: IC50 and % inhibition (Table 3); format: biochemical; settings: for IC50: repeated determinations
[4] = molecular target: T1, EphB4; test: Panvera Z'Lyte FRET-based enzymatic assay
Procedure: In vitro kinase activity was measured using the Panvera Z'Lyte Tyr2 kinase assay PV3191 (Invitrogen, USA), according to the manufacturer's instructions. […] The reaction is performed at room temperature for 1 hour.

[5] = molecular target: T1, EphB4; test: Cerep FRET-based enzymatic assay; format: biochemical; settings: ATP 0.75 μM, read-out: Enzymatic assays IC50 Cerep
Description: Similar values of IC50 compared to the original FRET-based enzymatic assay (Z'Lyte) are obtained (Table 2).

For Cn1c(=O)[nH]c(=O)c2c1nc1n(CCCCO)c(-c3ccccc3)cn21 [Compound 2], the “Sensitivity of inhibition to detergent (in words)” value ([1]; 0.01% Triton X-100) was “detergent-insensitive inhibition”, the “Mode of inhibition versus ATP (specific velocity plot)” value ([1]; ATP 31.25 to 500 μM, Km 158 μM) was “ATP competitive” and the Ki ([1]; two experiments, with and without 0.01% Triton X-100, read-out: Ki corresponding to Omnia IC50) was 2.7 µM and 2.9 µM. The IC50 ([1]; two experiments, without and with 0.01% Triton X-100, ATP 125 μM, 30° C. 1 hour, read-out: Enzymatic assays IC50 Omnia) was 5.6 µM and 7.9 µM, the “Inhibitory effects on EphB4 autophosphorylation in CHO cells (in words)” value ([2]; 20 μM) was “only mild inhibitory effects” and the “Cell-based assay percent inhibition” value ([2]; in CHO cells, at 20 μM) was “neg”. For the same compound, the “% inhibition at indicated concentration C” value ([3]; C = 10 μM, 10 µM) was 67% and 68% and 59% and 64%, the inhibition at 10 µM ([3]; C = 10 μM, read-out: % inhibition at indicated concentration C) was 72% and the IC50 ([3]; IC50, Table 3) was 6.7 µM. For the same compound, the IC50 ([3]; Table 3, read-out: IC50) was 8 µM and 7 µM, the IC50 [4] was roughly 1.6 µM and the IC50 ([4]; Enzymatic assays IC50 Z′Lyte, FRET-based, 10 μM ATP, 1% DMSO, room temperature 1 hour) was 1.4 µM and 1.8 µM. It also gave an IC50 [5] of 6.8 µM.
